This is an account of results in patent US10226452B2, “Benzoxazolone derivatives as acid ceramidase inhibitors, and their use as medicaments” (FONDAZIONE ISTITUTO ITALIANO DI TECNOLOGIA, priority 2014, dated 2019).

Entries after “also recorded” stand apart in the source; their conditions may differ.

For test [1], the target named is COX1 (h) (Homo sapiens (Human), UniProt P23219). The test can be described thus: Cerep enzyme inhibition screen: COX1. The class given is biochemical. The note with it: mean of two determinations, read-out: Inhibitory activity (% Inh. at 10 μM), mean. The source says: (§1) Compound of Example 25 falling in both Formula (I) and (Ia) was selected to be tested for off-target effects on a set of enzymes that include proteases (aspartic, cysteine, and serine), cyclooxygenases as well as lipoxygenases and group IV phospholipase (sPLA2) (Table 3). [table]

Test [2] addresses COX2 (h) (Homo sapiens (Human), UniProt P35354). Description: Cerep enzyme inhibition screen: COX2. It counts as biochemical. The following applies: mean of two determinations, read-out: Inhibitory activity (% Inh. at 10 μM), mean.
Source text: as §1

The target in test [3] is caspase-3 (h) (Homo sapiens (Human), UniProt P42574). Description: Cerep enzyme inhibition screen: caspase-3. It counts as biochemical. The note with it: mean of two determinations, read-out: Inhibitory activity (% Inh. at 10 μM), mean.
Source text: as §1

In test [4] the test system is MAG-hydrolyzing enzymes including MGL, HSL and EL. Description: MAG-hydrolysing activity ex vivo in mice. Also on record: species or system mouse. The note with it: 10 mg-kg^−1 intraperitoneal, 3 h after injection. How it is done: Compound of Example 25 was also tested for its ability to inhibit the hydrolytic degradation of diacylglycerols (DAG) and monoacylglycerols (MAG) in live mice. DAG and MAG hydrolysis is catalyzed by multiple serine lipases, including diacylglycerol lipase (DGL), monoacylglycerol lipase (MGL), hormone-sensitive lipase (HSL), and endothelial lipase. Thus, by monitoring the effects of compound of Example 25 on MAG-hydrolysing activity as well as DAG and MAG levels ex vivo, we can gain important insights as to the ability of the compound to interfere with those lipases in a physiologically relevant setting.
Specifically FIG. 8 evidences the effect of Example 25 or vehicle (DMSO) on MGL activity in brain, liver, fat and heart. MAG-hydrolysing activity was measured 3 h after intraperitoneal injection of compound of Example 25 (10 mg-kg-1). Results are expressed as mean±s.e.m. (n=5).
Tissue was homogenized in ice-cold Tris-HCl (50 mM, pH7.5, 10 vol) containing sucrose (0.32 M). Homogenates were centrifuged at 1,000×g for 10 min, and the supernatants (5 μg of protein) were incubated at 37° C. for 30 min in Tris.HCl (50 mM, pH 7.5, 0.5 mL) containing 10 μM oleoylglycerol (Sigma-Aldrich, St. Louis, Mo.). […] The residues were suspended in 100 μL of chloroform/methanol (1:3, v:v) and analyzed by LC-MS.

Test [5] concerns MeWo cells. The test can be described thus: ceramide levels in MeWo human melanoma cells. The class given is cell-based. The following applies: 25 μM. As to the method: Specifically, FIG. 1 evidences the effects of compound of Example 7 or vehicle (0.1% DMSO in DMEM) on AC activity and ceramide levels in A375 (left panel) or MeWo (right panel) human melanoma cell lines. (A-B) Intact cells were treated with compound of Example 7 (25 μM) or vehicle and AC activity was measured 30 minutes or 3 hours later in cell lysates. (B) Intact cells were exposed to compound of Example 7 (25 μM) for 2 hours or 24 hours and medium chain ceramides (C-D), long chain ceramides (E-F) and dihydroceramides (G-H) were quantified. Results are expressed as mean±s.e.m. (n=3). *p<0.05, **p<0.01, ***p<0.001 vs vehicle, two-way ANOVA followed by Dunnet.
Lipids were extracted from mouse tissue lysate with a chloroform/MeOH mixture (2:1 v/v, 3 mL) containing internal standards. The organic phase was collected, dried under nitrogen, and dissolved in chloroform/MeOH (1:3 v/v) for LC-MS analyses. Ceramides, sphingosine and sphinganine were analyzed by LC-MS/MS, using a Waters Acquity UPLC coupled with a Waters Xevo TQMS and interfaced with ESI. Separation was done on a Waters Acquity BEH C18 1.7 μm column (2.1×50 mm) at 60° C. A step gradient of 0.1% formic acid in acetonitrile/water (20:80 v/v) as solvent A and 0.1 formic acid in acetonitrile/isopropyl alcohol (20:80 v/v) as solvent B was applied at a flow rate of 0.4 mL/min. Detection was in the positive ionization mode. Capillary voltage was 3.5 kV and cone voltage was 25 V. The source temperature and desolvation temperatures were set at 120° C. and 600° C. respectively. […]
Tissue-derived ceramides were identified by comparison of their LC retention times and MS^2 fragmentation patterns with those of authentic standards (Avanti Polar Lipids). Extracted ion chromatograms were used to quantify myristoyl ceramide (C14:0, m/z 510.5>492.5>264.3), palmitoyl ceramide (C16:0, m/z 538.5>520.3>264.3), stearoyl ceramide (C18:0 m/z 566.5>548.3>264.3), lignoceroyl ceramide (C24:0 m/z 650.5>632.3>264.3), nervonoyl ceramide (C24:1 m/z 648.5>630.3>264.3) and using lauroyl ceramide standard (m/z 482.5>464.5>264.3). […]

COX2 (h), sequence (P35354 18-604): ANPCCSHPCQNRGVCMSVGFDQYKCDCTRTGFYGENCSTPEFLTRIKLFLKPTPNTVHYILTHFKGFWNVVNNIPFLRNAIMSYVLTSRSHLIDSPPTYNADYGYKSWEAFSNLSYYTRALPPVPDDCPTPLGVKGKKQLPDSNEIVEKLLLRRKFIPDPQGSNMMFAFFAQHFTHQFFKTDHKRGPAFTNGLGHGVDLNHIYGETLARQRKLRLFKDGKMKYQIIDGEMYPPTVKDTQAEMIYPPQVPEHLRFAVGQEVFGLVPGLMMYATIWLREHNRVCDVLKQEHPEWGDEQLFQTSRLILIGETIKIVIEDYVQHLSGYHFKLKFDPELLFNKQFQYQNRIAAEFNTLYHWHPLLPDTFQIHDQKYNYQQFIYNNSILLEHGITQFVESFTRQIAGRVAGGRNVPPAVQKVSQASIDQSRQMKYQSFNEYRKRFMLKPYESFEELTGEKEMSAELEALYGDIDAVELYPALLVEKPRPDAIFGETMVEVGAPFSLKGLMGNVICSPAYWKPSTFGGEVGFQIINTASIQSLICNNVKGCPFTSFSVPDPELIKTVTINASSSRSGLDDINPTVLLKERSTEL
caspase-3 (h), sequence (P42574 29-175): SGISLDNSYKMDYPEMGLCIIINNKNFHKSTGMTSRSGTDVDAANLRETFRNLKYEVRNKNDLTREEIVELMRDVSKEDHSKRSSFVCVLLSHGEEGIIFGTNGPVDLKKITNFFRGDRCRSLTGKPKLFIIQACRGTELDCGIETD
caspase-3 (h), sequence (P42574 176-277): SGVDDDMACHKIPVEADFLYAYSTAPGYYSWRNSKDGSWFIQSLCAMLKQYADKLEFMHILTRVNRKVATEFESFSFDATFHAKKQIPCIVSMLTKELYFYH
COX1 (h), sequence (P23219 24-599): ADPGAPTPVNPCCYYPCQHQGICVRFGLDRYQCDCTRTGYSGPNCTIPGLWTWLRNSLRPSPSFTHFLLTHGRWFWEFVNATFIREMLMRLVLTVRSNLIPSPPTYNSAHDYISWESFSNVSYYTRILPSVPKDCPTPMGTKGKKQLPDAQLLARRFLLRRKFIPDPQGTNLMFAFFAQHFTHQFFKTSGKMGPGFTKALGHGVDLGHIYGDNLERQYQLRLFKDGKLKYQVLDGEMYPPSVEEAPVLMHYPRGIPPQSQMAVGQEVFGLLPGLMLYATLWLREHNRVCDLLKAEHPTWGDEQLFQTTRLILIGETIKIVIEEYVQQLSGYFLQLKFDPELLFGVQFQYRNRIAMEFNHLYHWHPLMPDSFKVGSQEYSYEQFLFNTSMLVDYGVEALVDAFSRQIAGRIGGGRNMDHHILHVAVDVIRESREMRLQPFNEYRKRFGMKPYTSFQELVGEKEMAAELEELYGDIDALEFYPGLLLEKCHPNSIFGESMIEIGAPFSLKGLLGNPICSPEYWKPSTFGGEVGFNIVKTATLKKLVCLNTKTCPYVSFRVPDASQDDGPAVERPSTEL

On to `O=C(NCCCCc1ccccc1)n1c(=O)oc2cc(-c3ccc(F)cc3)ccc21` [Example 25, 6-(4-Fluorophenyl)-2-oxo-N-(4-phenylbutyl)-1,3-benzoxazole-3-carboxamide], for which the inhibition at 10 µM in test [1] is -6.1%; in test [2] it was 6.7%; in test [3], 1.9%. Further, the “MAG-hydrolysing activity in brain, liver, fat and heart” value in test [4] is “did not cause inhibition of MAG-hydrolysing activity; also recorded: no inhibitory activity”.

For `O=C(NCCCCc1ccccc1)n1c(=O)oc2cc(Br)ccc21` [Example 7, 6-Bromo-2-oxo-N-(4-phenylbutyl)-1,3-benzoxazole-3-carboxamide], the “duration of effects on ceramide levels” value in test [5] (MeWo cells (high AC expression)) is “recovered the initial phenotype after 24 hours”. The “di-hydro ceramide species levels” value in test [5] (MeWo cells) is recorded as “significant increase in all di-hydro ceramide species analyzed”. Further, in test [5] (MeWo cells, LC/MS), the “ceramide species levels (cer(d18:1/14:0), cer(d18:1/16:0), cer(d18:1/18:0), cer(d18:1/24:1))” value is “intracellular accumulation of various ceramide species”.
